Assay [1] deals with Cabbage Looper (Trichoplusia ni) ("CL"), second instar larvae. The experiment in a line: Bioassay on cabbage looper (CL), 128-well diet tray assay. It is filed as in vivo. The following applies: for pest or weed control at 50 µg/cm2: Trichoplusia ni; for CL rating: Table ABC, species CL, C = not tested, D = no activity noticed. Put shortly: (§1)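 Second-instar larvae on diet in 128-well trays, covered and held at 25° C, 14:10 light-dark, for five to seven days. Percent mortality scored per well and averaged over eight wells; activity reported as a rating category.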

Assay [2] has as its system Beet Armyworm (Spodoptera exigua) ("BAW"), second instar larvae. Briefly: Bioassay on beet armyworm (BAW), 128-well diet tray assay. The note with it: for pest or weed control at 50 µg/cm2: Spodoptera exigua; for BAW rating: Table ABC, species BAW, C = not tested, D = no activity noticed. In kind it is in vivo. The gist of the method: as §1
[3] abbreviates: read-out: CL (Biological Results, rating).
Setting [4] is: read-out: BAW (Biological Results, rating).

Read-outs that look alike come from different tables or passages of the source.

The results in this text go back to patent publication US20230077362A1 (CORTEVA AGRISCIENCE LLC, priority 2019, published 2023).

For `Cc1ccc(COCC(F)(F)F)c(N2C(=O)CS/C2=N\C(=O)Nc2ccc(-c3nnc(-c4ccc(OC(F)(F)F)cc4)o3)cc2F)c1` [Compound J430, (Z)-1-(2-Fluoro-4-(5-(4-(trifluoromethoxy)phenyl)-1,3,4-oxadiazol-2-yl)phenyl)-3-(3-(5-methyl-2-((2,2,2-trifluoroethoxy)methyl)phenyl)-4-oxothiazolidin-2-ylidene)urea], the pest or weed control at 50 µg/cm2 in assay [1] (read-out: CL rating) and in assay [2] (read-out: BAW rating) was 50 to 100% each time.
With `CC(=O)N(C)c1ccc(C(C)C)c(N2C(=O)CS/C2=N\C(=O)Nc2ccc(-c3ncn(-c4ccc(OC(F)(F)F)cc4)n3)cc2C)c1` [Compound J199, (Z)-N-(4-Isopropyl-3-(2-(((2-methyl-4-(1-(4-(trifluoromethoxy)phenyl)-1H-1,2,4-triazol-3-yl)phenyl)carbamoyl)imino)-4-oxothiazolidin-3-yl)phenyl)-N-methylacetamide], the pest or weed control at 50 µg/cm2 in assay [1] (setting [3]) and in assay [2] (setting [4]) was 50 to 100% throughout.
Turning to `COc1ccc(COCC(F)(F)F)c(N2C(=O)CS/C2=N\C(=O)Nc2ccc(-n3cnc(-c4ccc(C(F)(F)F)cc4)n3)cc2F)c1` [Compound J700, (Z)-1-(2-Fluoro-4-(3-(4-(trifluoromethyl)phenyl)-1H-1,2,4-triazol-1-yl)phenyl)-3-(3-(5-methoxy-2-((2,2,2-trifluoroethoxy)methyl)phenyl)-4-oxothiazolidin-2-ylidene)urea], the pest or weed control at 50 µg/cm2 in assay [1] (read-out: CL rating) and in assay [2] (read-out: BAW rating) was 50 to 100% throughout.
For `COc1ccc(-n2cnc(-c3ccc(NC(=O)/N=C4\SCC(=O)N4c4cc(C)ccc4OCCC(F)(F)F)c(F)c3)n2)cc1` [Compound J147, (Z)-1-(2-Fluoro-4-(1-(4-methoxyphenyl)-1H-1,2,4-triazol-3-yl)phenyl)-3-(3-(5-methyl-2-(3,3,3-trifluoropropoxy)phenyl)-4-oxothiazolidin-2-ylidene)urea], the pest or weed control at 50 µg/cm2 in assay [1] (setting [3]) and in assay [2] (setting [4]) was 50 to 100% each time.
Consider `COc1cc(COCC(F)(F)F)c(N2C(=O)CS/C2=N\C(=O)Nc2ccc(-c3ncn(-c4ccc(OC(F)(F)F)cc4)n3)cc2F)cc1OC` [Compound J560], for which the CL rating entry in assay [1] is reported as “A (50-100)”. Also, the BAW rating entry in assay [2] is given as “A (50-100)”.
For `COc1ccc(-n2cnc(-c3ccc(NC(=O)/N=C4\SCC(=O)N4c4cc(C)c(C)cc4COCC(F)(F)F)c(F)c3)n2)cc1` [Compound J756, (Z)-1-(3-(4,5-Dimethyl-2-((2,2,2-trifluoroethoxy)methyl)phenyl)-4-oxothiazolidin-2-ylidene)-3-(2-fluoro-4-(1-(4-methoxyphenyl)-1H-1,2,4-triazol-3-yl)phenyl)urea], the pest or weed control at 50 µg/cm2 in assay [1] (read-out: CL rating) and in assay [2] (read-out: BAW rating) was 50 to 100% in each case.
As to `CCOc1ccc(C)cc1N1C(=O)CS/C1=N\C(=O)Nc1ccc(-c2ncn(-c3ccc(OC(F)(F)F)cc3)n2)cc1F` [Compound J59, (Z)-1-(3-(2-Ethoxy-5-methylphenyl)-4-oxothiazolidin-2-ylidene)-3-(2-fluoro-4-(1-(4-(trifluoromethoxy)phenyl)-1H-1,2,4-triazol-3-yl)phenyl)urea], the pest or weed control at 50 µg/cm2 in assay [1] (setting [3]) and in assay [2] (setting [4]) was 50 to 100% throughout.
With `CC(C)c1ccc(N(C)C)cc1N1C(=O)CS/C1=N\C(=O)Nc1ccc(-c2ncn(-c3ccc(S(F)(F)(F)(F)F)cc3)n2)cc1C(F)(F)F` [Compound J630, (Z)-1-(3-(5-(Dimethylamino)-2-isopropylphenyl)-4-oxothiazolidin-2-ylidene)-3-(4-(1-(4-(pentafluoro-λ^6-sulfaneyl)phenyl)-1H-1,2,4-triazol-3-yl)-2-(trifluoromethyl)phenyl)urea], the pest or weed control at 50 µg/cm2 in assay [1] (read-out: CL rating) and in assay [2] (read-out: BAW rating) was 50 to 100% throughout.
For the compound `CCOCc1ccc(C)cc1N1C(=O)CS/C1=N\C(=O)Nc1ccc(-c2nnc(-c3ccc(OC(F)(F)F)cc3)o2)cc1F` [Compound J610, (Z)-1-(3-(2-(Ethoxymethyl)-5-methylphenyl)-4-oxothiazolidin-2-ylidene)-3-(2-fluoro-4-(5-(4-(trifluoromethoxy)phenyl)-1,3,4-oxadiazol-2-yl)phenyl)urea], the pest or weed control at 50 µg/cm2 in assay [1] (read-out: CL rating) and in assay [2] (read-out: BAW rating) was 50 to 100% throughout.
In the case of `CCOCc1ccc(C)cc1N1C(=O)CS/C1=N\C(=O)Nc1ccc(-c2ncn(-c3ccc(OC(F)(F)F)cc3)n2)cc1C(F)F` [Compound J214, (Z)-1-(2-(Difluoromethyl)-4-(1-(4-(trifluoromethoxy)phenyl)-1H-1,2,4-triazol-3-yl)phenyl)-3-(3-(2-(ethoxymethyl)-5-methylphenyl)-4-oxothiazolidin-2-ylidene)urea], the pest or weed control at 50 µg/cm2 in assay [1] (setting [3]) and in assay [2] (setting [4]) was 50 to 100% throughout.
Consider `CCCNc1ccc(C(C)C)c(N2C(=O)CS/C2=N\C(=O)Nc2ccc(-c3ncn(-c4ccc(OC(F)(F)F)cc4)n3)cc2F)c1` [Compound J107, (Z)-1-(2-Fluoro-4-(1-(4-(trifluoromethoxy)phenyl)-1H-1,2,4-triazol-3-yl)phenyl)-3-(3-(2-isopropyl-5-(propylamino)phenyl)-4-oxothiazolidin-2-ylidene)urea], for which the pest or weed control at 50 µg/cm2 in assay [1] (setting [3]) and in assay [2] (setting [4]) was 50 to 100% in each case.
With `Cc1cccc(N2C(=O)CS/C2=N\C(=O)Nc2ccc(-n3cnc(-c4ccc(OC(F)(F)F)cc4)n3)cc2F)c1COCC(F)(F)F` [Compound J703, (Z)-1-(2-Fluoro-4-(3-(4-(trifluoromethoxy)phenyl)-1H-1,2,4-triazol-1-yl)phenyl)-3-(3-(3-methyl-2-((2,2,2-trifluoroethoxy)methyl)phenyl)-4-oxothiazolidin-2-ylidene)urea], the pest or weed control at 50 µg/cm2 in assay [1] (read-out: CL rating) and in assay [2] (read-out: BAW rating) was 50 to 100% throughout.
For the compound `COC(C)c1ccc(C)cc1N1C(=O)CS/C1=N\C(=O)Nc1ccc(-c2ncn(-c3ccc(OC(F)(F)F)cc3)n2)cc1C(C)C` (stereo not drawn) [Compound J94, (Z)-1-(2-Isopropyl-4-(1-(4-(trifluoromethoxy)phenyl)-1H-1,2,4-triazol-3-yl)phenyl)-3-(3-(2-(1-methoxyethyl)-5-methylphenyl)-4-oxothiazolidin-2-ylidene)urea], the pest or weed control at 50 µg/cm2 in assay [1] (setting [3]) and in assay [2] (setting [4]) was 50 to 100% in each case.
Consider `COC(c1ccc(C)cc1N1C(=O)CS/C1=N\C(=O)Nc1ccc(-c2nc(-c3ccc(OC(F)(F)F)cc3)no2)cc1F)C(F)(F)F` (stereo not drawn) [Compound J428, (Z)-1-(2-Fluoro-4-(3-(4-(trifluoromethoxy)phenyl)-1,2,4-oxadiazol-5-yl)phenyl)-3-(3-(5-methyl-2-(2,2,2-trifluoro-1-methoxyethyl)phenyl)-4-oxothiazolidin-2-ylidene)urea], for which the pest or weed control at 50 µg/cm2 in assay [1] (read-out: CL rating) and in assay [2] (read-out: BAW rating) was 50 to 100% in each case.
For `COC(C)c1ccc(C)cc1N1C(=O)CS/C1=N\C(=O)Nc1ccc(-c2cn(-c3ccc(C(F)(F)F)cn3)cn2)cc1C` (stereo not drawn) [Compound J508, (Z)-1-(3-(2-(1-Methoxyethyl)-5-methylphenyl)-4-oxothiazolidin-2-ylidene)-3-(2-methyl-4-(1-(5-(trifluoromethyl)pyridin-2-yl)-1H-imidazol-4-yl)phenyl)urea], the pest or weed control at 50 µg/cm2 in assay [1] (read-out: CL rating) and in assay [2] (read-out: BAW rating) was 50 to 100% in each case.
Consider `CC(C)c1ccc(N(C)C)cc1N1C(=O)CS/C1=N\C(=O)Nc1ccc(-c2ncn(-c3ccc(OC(F)(F)F)cc3)n2)cc1Br` [Compound J219, (Z)-1-(2-Bromo-4-(1-(4-(trifluoromethoxy)phenyl)-1H-1,2,4-triazol-3-yl)phenyl)-3-(3-(5-(dimethylamino)-2-isopropylphenyl)-4-oxothiazolidin-2-ylidene)urea], for which the pest or weed control at 50 µg/cm2 in assay [1] (setting [3]) and in assay [2] (setting [4]) was 50 to 100% each time.
Regarding `CCNc1ccc(C(C)C)c(N2C(=O)CS/C2=N\C(=O)Nc2ccc(-c3ncn(-c4ccc(OC(F)(F)F)cc4)n3)cc2CC)c1` [Compound J158, (Z)-1-(2-Ethyl-4-(1-(4-(trifluoromethoxy)phenyl)-1H-1,2,4-triazol-3-yl)phenyl)-3-(3-(5-(ethylamino)-2-isopropylphenyl)-4-oxothiazolidin-2-ylidene)urea], the pest or weed control at 50 µg/cm2 in assay [1] (setting [3]) and in assay [2] (setting [4]) was 50 to 100% each time.
Take `CCc1ccc(COCC(F)(F)F)c(N2C(=O)CS/C2=N\C(=O)Nc2ccc(-c3ncn(-c4ccc(OC(F)(F)F)cc4)n3)cc2C)c1` [Compound J641]: in assay [1], the CL rating entry was “A (50-100)”. The BAW rating entry in assay [2] was “A (50-100)”.
For the compound `CN(C)c1ccc(OCC(F)(F)F)c(N2C(=O)CS/C2=N\C(=O)Nc2ccc(-n3cnc(-c4ccc(OC(F)(F)F)cc4)n3)cc2F)c1` [Compound J688, (Z)-1-(3-(5-(Dimethylamino)-2-(2,2,2-trifluoroethoxy)phenyl)-4-oxothiazolidin-2-ylidene)-3-(2-fluoro-4-(3-(4-(trifluoromethoxy)phenyl)-1H-1,2,4-triazol-1-yl)phenyl)urea], the pest or weed control at 50 µg/cm2 in assay [1] (read-out: CL rating) and in assay [2] (read-out: BAW rating) was 50 to 100% each time.
Consider `Cc1ccc(COCC(F)(F)F)c(N2C(=O)CS/C2=N\C(=O)Nc2ccc(-n3cnc(-c4ccc(OC(F)(F)F)cc4)n3)cc2F)c1` [Compound J689, (Z)-1-(2-Fluoro-4-(3-(4-(trifluoromethoxy)phenyl)-1H-1,2,4-triazol-1-yl)phenyl)-3-(3-(5-methyl-2-((2,2,2-trifluoroethoxy)methyl)phenyl)-4-oxothiazolidin-2-ylidene)urea], for which the pest or weed control at 50 µg/cm2 in assay [1] (read-out: CL rating) and in assay [2] (read-out: BAW rating) was 50 to 100% each time.
Turning to `CCCN(CCC)c1ccc(C(C)C)c(N2C(=O)CS/C2=N\C(=O)Nc2ccc(-c3ncn(-c4ccc(OC(F)(F)F)cc4)n3)cc2F)c1` [Compound J108, (Z)-1-(3-(5-(Dipropylamino)-2-isopropylphenyl)-4-oxothiazolidin-2-ylidene)-3-(2-fluoro-4-(1-(4-(trifluoromethoxy)phenyl)-1H-1,2,4-triazol-3-yl)phenyl)urea], the pest or weed control at 50 µg/cm2 in assay [1] (setting [3]) and in assay [2] (setting [4]) was 50 to 100% throughout.
